Experimental data reported in the NIST ThermoML archive (doi:10.1016/j.fluid.2010.10.028).
Numbers after ± are expanded uncertainties.

Experiment: xn = mol fraction of the nth substance listed
Conditions: Liquid, Vibrating tube method

CC(C)=O [acetone] + CCCCCCC
Conditions | mass density [kg/m3]
387.31 K, 109790 kPa, x1 = 0.611 | 737.58 ± 1.7
387.31 K, 114860 kPa, x1 = 0.611 | 740.58 ± 1.7
387.31 K, 119850 kPa, x1 = 0.611 | 743.43 ± 1.7
387.31 K, 124850 kPa, x1 = 0.611 | 746.21 ± 1.7
387.31 K, 129830 kPa, x1 = 0.611 | 748.89 ± 1.8
387.32 K, 1320 kPa, x1 = 0.801 | 639.55 ± 1.2
387.32 K, 1540 kPa, x1 = 0.4 | 654.4 ± 1.2
387.32 K, 1540 kPa, x1 = 0.8992 | 654.4 ± 1.2
387.32 K, 9840 kPa, x1 = 0.801 | 658.47 ± 1.2
387.32 K, 14970 kPa, x1 = 0.4 | 681.93 ± 1.3
387.32 K, 14970 kPa, x1 = 0.8992 | 681.93 ± 1.2
387.32 K, 24870 kPa, x1 = 0.611 | 663.63 ± 1.3
387.32 K, 29860 kPa, x1 = 0.611 | 670.27 ± 1.3
387.32 K, 34870 kPa, x1 = 0.611 | 676.42 ± 1.3
387.32 K, 39850 kPa, x1 = 0.801 | 702.19 ± 1.3
387.32 K, 39920 kPa, x1 = 0.4 | 716.49 ± 1.3
387.32 K, 39920 kPa, x1 = 0.8992 | 716.49 ± 1.3
387.32 K, 44860 kPa, x1 = 0.611 | 687.46 ± 1.4
387.32 K, 49850 kPa, x1 = 0.801 | 712.89 ± 1.4
387.32 K, 49880 kPa, x1 = 0.4 | 727.19 ± 1.4
387.32 K, 49880 kPa, x1 = 0.8992 | 727.19 ± 1.4
387.32 K, 54850 kPa, x1 = 0.801 | 717.78 ± 1.4
387.32 K, 59840 kPa, x1 = 0.611 | 701.71 ± 1.4
387.32 K, 59850 kPa, x1 = 0.4 | 736.82 ± 1.4
387.32 K, 59850 kPa, x1 = 0.801 | 722.41 ± 1.4
387.32 K, 59850 kPa, x1 = 0.8992 | 736.82 ± 1.4
387.32 K, 64820 kPa, x1 = 0.801 | 726.8 ± 1.4
387.32 K, 64830 kPa, x1 = 0.4 | 741.3 ± 1.4
387.32 K, 64830 kPa, x1 = 0.8992 | 741.3 ± 1.4
387.32 K, 69930 kPa, x1 = 0.611 | 710.16 ± 1.5
387.32 K, 74800 kPa, x1 = 0.4 | 749.67 ± 1.5
387.32 K, 74800 kPa, x1 = 0.8992 | 749.67 ± 1.4
387.32 K, 74910 kPa, x1 = 0.611 | 714.05 ± 1.5
387.32 K, 74910 kPa, x1 = 0.801 | 735.15 ± 1.5
387.32 K, 79790 kPa, x1 = 0.4 | 753.62 ± 1.5
387.32 K, 79790 kPa, x1 = 0.8992 | 753.62 ± 1.4
387.32 K, 79900 kPa, x1 = 0.611 | 717.8 ± 1.5
387.32 K, 84760 kPa, x1 = 0.4 | 757.4 ± 1.5
387.32 K, 84760 kPa, x1 = 0.8992 | 757.4 ± 1.5
387.32 K, 89750 kPa, x1 = 0.4 | 761.05 ± 1.5
387.32 K, 89750 kPa, x1 = 0.8992 | 761.05 ± 1.5
387.32 K, 89870 kPa, x1 = 0.611 | 724.87 ± 1.6
387.32 K, 94730 kPa, x1 = 0.4 | 764.59 ± 1.5
387.32 K, 94730 kPa, x1 = 0.8992 | 764.59 ± 1.5
387.32 K, 94840 kPa, x1 = 0.801 | 749.8 ± 1.5
387.32 K, 94850 kPa, x1 = 0.611 | 728.19 ± 1.6
387.32 K, 99700 kPa, x1 = 0.4 | 768.01 ± 1.5
387.32 K, 99700 kPa, x1 = 0.8992 | 768.01 ± 1.5
387.32 K, 99840 kPa, x1 = 0.611 | 731.42 ± 1.6
387.32 K, 104670 kPa, x1 = 0.4 | 771.32 ± 1.6
387.32 K, 104670 kPa, x1 = 0.8992 | 771.32 ± 1.5
387.32 K, 104810 kPa, x1 = 0.611 | 734.54 ± 1.6
387.32 K, 104810 kPa, x1 = 0.801 | 756.41 ± 1.6
387.32 K, 109640 kPa, x1 = 0.4 | 774.53 ± 1.6
387.32 K, 109640 kPa, x1 = 0.8992 | 774.53 ± 1.6
387.32 K, 109780 kPa, x1 = 0.801 | 759.56 ± 1.6
387.32 K, 114600 kPa, x1 = 0.4 | 777.64 ± 1.6
387.32 K, 114600 kPa, x1 = 0.8992 | 777.64 ± 1.6
387.32 K, 119580 kPa, x1 = 0.4 | 780.68 ± 1.6
387.32 K, 119580 kPa, x1 = 0.8992 | 780.68 ± 1.6
387.32 K, 119830 kPa, x1 = 0.801 | 765.63 ± 1.6
387.32 K, 124530 kPa, x1 = 0.4 | 783.61 ± 1.6
387.32 K, 124530 kPa, x1 = 0.8992 | 783.61 ± 1.6
387.32 K, 129840 kPa, x1 = 0.4 | 786.68 ± 1.6
387.32 K, 129840 kPa, x1 = 0.8992 | 786.68 ± 1.6
387.33 K, 1300 kPa, x1 = 0.7024 | 628.97 ± 1.2
387.33 K, 4820 kPa, x1 = 0.7024 | 637.48 ± 1.2
387.33 K, 4860 kPa, x1 = 0.492 | 621.33 ± 1.2
387.33 K, 4860 kPa, x1 = 0.801 | 648.03 ± 1.2
387.33 K, 5010 kPa, x1 = 0.4 | 662.6 ± 1.2
387.33 K, 5010 kPa, x1 = 0.8992 | 662.6 ± 1.2
387.33 K, 9820 kPa, x1 = 0.7024 | 647.9 ± 1.2
387.33 K, 9850 kPa, x1 = 0.492 | 631.47 ± 1.2
387.33 K, 10000 kPa, x1 = 0.4 | 672.89 ± 1.2
387.33 K, 10000 kPa, x1 = 0.8992 | 672.89 ± 1.2
387.33 K, 14850 kPa, x1 = 0.492 | 640.29 ± 1.2
387.33 K, 14860 kPa, x1 = 0.801 | 667.65 ± 1.2
387.33 K, 19810 kPa, x1 = 0.7024 | 665.07 ± 1.3
387.33 K, 19860 kPa, x1 = 0.801 | 675.81 ± 1.3
387.33 K, 19960 kPa, x1 = 0.4 | 690.05 ± 1.3
387.33 K, 19960 kPa, x1 = 0.8992 | 690.05 ± 1.3
387.33 K, 24860 kPa, x1 = 0.801 | 683.23 ± 1.3
387.33 K, 24940 kPa, x1 = 0.4 | 697.46 ± 1.3
387.33 K, 24940 kPa, x1 = 0.8992 | 697.46 ± 1.3
387.33 K, 29820 kPa, x1 = 0.7024 | 679.2 ± 1.3
387.33 K, 29830 kPa, x1 = 0.801 | 690 ± 1.3
387.33 K, 29940 kPa, x1 = 0.4 | 704.27 ± 1.3
387.33 K, 29940 kPa, x1 = 0.8992 | 704.27 ± 1.3
387.33 K, 34860 kPa, x1 = 0.801 | 696.35 ± 1.3
387.33 K, 34930 kPa, x1 = 0.4 | 710.58 ± 1.3
387.33 K, 34930 kPa, x1 = 0.8992 | 710.58 ± 1.3
